Results on 67 molecules are retold here after PubChem BioAssay AID602166 (The Scripps Research Institute Molecular Screening Center, 2012).

Calls of active or inactive are those of the source. No rule for the calls is given here.

Sequence of Nuclear receptor coactivator 3 (Homo sapiens) (Q9Y6Q9 whole entry, looked up): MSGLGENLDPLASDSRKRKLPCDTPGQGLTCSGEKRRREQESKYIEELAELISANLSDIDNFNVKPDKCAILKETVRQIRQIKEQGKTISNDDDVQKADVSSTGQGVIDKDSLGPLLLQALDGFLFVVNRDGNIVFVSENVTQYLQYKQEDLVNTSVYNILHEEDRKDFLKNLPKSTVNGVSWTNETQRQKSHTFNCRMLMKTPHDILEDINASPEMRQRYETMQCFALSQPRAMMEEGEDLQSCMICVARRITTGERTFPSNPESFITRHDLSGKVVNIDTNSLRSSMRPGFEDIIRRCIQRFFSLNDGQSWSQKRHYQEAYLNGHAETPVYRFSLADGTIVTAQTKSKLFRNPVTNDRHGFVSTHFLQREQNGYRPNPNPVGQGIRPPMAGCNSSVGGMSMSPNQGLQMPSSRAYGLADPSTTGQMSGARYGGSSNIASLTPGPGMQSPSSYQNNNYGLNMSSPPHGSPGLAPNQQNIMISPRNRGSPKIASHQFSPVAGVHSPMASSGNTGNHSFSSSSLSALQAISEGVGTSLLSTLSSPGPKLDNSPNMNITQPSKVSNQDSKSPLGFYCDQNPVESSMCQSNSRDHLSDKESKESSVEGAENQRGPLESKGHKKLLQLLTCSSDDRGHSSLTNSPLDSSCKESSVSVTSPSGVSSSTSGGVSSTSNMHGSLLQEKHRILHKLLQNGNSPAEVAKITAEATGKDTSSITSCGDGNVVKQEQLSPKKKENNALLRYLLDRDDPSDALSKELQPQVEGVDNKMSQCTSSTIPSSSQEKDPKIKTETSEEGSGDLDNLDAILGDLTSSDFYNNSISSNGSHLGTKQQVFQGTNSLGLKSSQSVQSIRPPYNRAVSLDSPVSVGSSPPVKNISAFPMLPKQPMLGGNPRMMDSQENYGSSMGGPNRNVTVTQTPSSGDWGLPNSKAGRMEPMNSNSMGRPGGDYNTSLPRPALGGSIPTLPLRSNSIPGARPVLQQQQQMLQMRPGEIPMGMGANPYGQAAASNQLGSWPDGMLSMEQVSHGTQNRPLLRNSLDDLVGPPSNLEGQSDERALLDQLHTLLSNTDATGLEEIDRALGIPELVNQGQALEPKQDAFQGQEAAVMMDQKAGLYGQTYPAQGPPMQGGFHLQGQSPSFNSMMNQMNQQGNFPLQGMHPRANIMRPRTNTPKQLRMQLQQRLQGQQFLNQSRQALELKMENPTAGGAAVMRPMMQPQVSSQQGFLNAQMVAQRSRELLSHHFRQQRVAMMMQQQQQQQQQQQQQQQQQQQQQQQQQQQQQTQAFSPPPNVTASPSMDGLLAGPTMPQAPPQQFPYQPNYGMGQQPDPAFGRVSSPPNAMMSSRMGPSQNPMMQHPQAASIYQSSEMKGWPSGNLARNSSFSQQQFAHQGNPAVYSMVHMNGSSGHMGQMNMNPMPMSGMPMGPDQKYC

This test concerns the target Nuclear receptor coactivator 3 (Homo sapiens) (UniProt Q9Y6Q9). The test can be described thus: SRC3 coactivator transcriptional activity inhibitors, dose response, cell-based, luminescence (AID 602166).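 Also: potency for reduction of SRC3 reporter signal so compounds are inhibitors.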 The conditions noted are these: SRC3 luciferase reporter cell assay.
As to `COc1ccc2[nH]c(=O)c(CN(CCN3CCCC3)C(=O)Nc3ccccc3Cl)cc2c1`, the IC50 entry is “inactive”.
Consider `O=C(OCCC12CC3CC(CC(C3)C1)C2)c1ccc(NCc2cc(O)ccc2O)cc1`, for which the IC50 was 4.38 µM.
Consider `CCn1nc(/C=C/c2ccccc2)nc2c(=O)n(C)c(=O)nc1-2`, for which the IC50 was > 35.9 µM (inactive).
For `Cc1ccc(C(=O)O/N=C(\N)c2ccccn2)c(Cl)c1` the value was > 35.9 µM (inactive).
Consider `COc1ccc(OC)c(Cc2cnc3nc(N)nc(N)c3c2C)c1`, for which the IC50 is 7.45 µM.
For `CC(C)N(c1ccccc1)c1ccc(NC(=O)CCl)cc1`, the IC50 entry is “inactive”.
For `COc1cc(/C=N/NC(=Nc2ccc(C)cc2)c2nc3ccccc3s2)ccc1O` the value was > 35.9 µM (inactive); for `O=C(NCCCn1ccnc1)c1ccc(N2CCCCCC2)c([N+](=O)[O-])c1`, “inactive”; for `O=C(NC(NC(=S)N1CCOCC1)C(Cl)(Cl)Cl)c1ccc(Cl)cc1` (configuration not stated), > 35.9 µM (inactive).
Next, `C=CCn1c(O)c(C(C)=NCc2cc(OC)cc(OC)c2)c(=O)[nH]c1=O`: 7.73 µM; `COC(=O)c1c(C)n(-c2ccc(OC)cc2)c2ccc(O)cc12`: 3.99 µM.
Next, `CNC(=O)c1cccn(Cc2ccc(C(F)(F)F)cc2)c1=O`: > 35.8 µM (inactive); `O=C(NC1CCCCC1)C(c1cccnc1)N(C(=O)CCl)c1cccc(Cl)c1` (configuration not stated): 3.1 µM; `CN(C)S(=O)(=O)c1ccc(N2CCN(S(=O)(=O)c3ccc(F)cc3)CC2)c(Cl)c1`: 7.88 µM.
With `c1ccc(-c2nnc(-c3ccccn3)nc2NC2CCCCC2)cc1`, the IC50 is 3.94 µM.
For `N#Cc1c2ccc(O)cc2n2ccccc12` the value was 3.41 µM; for `COc1ccc(/C=C2\CN(Cc3ccccc3)C/C(=C\c3ccc(OC)c(O)c3)C2=O)cc1O`, > 35.9 µM (inactive).
In the case of `O=C(Nc1nc2cc3c(cc2s1)OCCO3)C1=COCCO1`, the IC50 entry is “inactive”.
For `COc1cccc(/C=N/Nc2ccc([N+](=O)[O-])cn2)c1O` the value was “inactive”; for `CCOC(=O)C(C(C)=O)c1c(Br)c(O)c(O)c2c(C(=O)c3ccc(C)cc3)coc12` (configuration not stated), 4.11 µM; for `Cc1cc(-c2nnc(SCC(=O)Nc3ccccc3C(F)(F)F)o2)c(C)n1-c1ccccc1`, > 35.9 µM (inactive).
Take `C(=Cc1cnc2ccccc2n1)c1ccc2c(c1)OCO2`: the IC50 entry is “inactive”.
Next, `Nc1ncccc1C(=O)OCC(=O)N1CCN(S(=O)(=O)c2ccc(Cl)cc2)CC1`: 7.74 µM; `COc1ccc(/C=C2/SC(=S)N(CCC(=O)O)C2=O)cc1`: > 35.9 µM (inactive); `CCC(=O)c1ccc(O)c(CC=C(C)C)c1`: 8.77 µM.
Next, `Cc1cccc(NC(=O)c2cc(Cl)ccc2[N+](=O)[O-])c1`: 5.61 µM.
Next, `CCc1ccc(-c2nc(CSCC(=O)NCc3ccco3)c(C)o2)cc1`: > 35.9 µM (inactive).
For the molecule `O=C(NCc1ccccc1)c1c(Cl)nc(Cl)c(Cl)c1Cl`, the IC50 entry was “inactive”.
Next, `O=C(CNc1cccc([N+](=O)[O-])c1)N/N=C/c1ccc([N+](=O)[O-])o1`: “inactive”; `Fc1ccc(CSc2nnc(-c3ccncc3)o2)cc1`: 2.44 µM; `CCCC(=O)NC(c1ccc2c(c1)OCO2)c1cc(Cl)c2cccnc2c1O` (configuration not stated): 7.71 µM.
Next, `CN(Cc1cnc2nc(N)nc(N)c2n1)c1ccc(C(=O)N[C@@H](CCC(=O)O)C(=O)O)cc1`: > 35.9 µM (inactive); `S=C(Nc1ccccc1)Nc1ccc(OCc2ccc(Cl)cc2Cl)cc1`: 4.36 µM.
Next, `CC(=O)OCCN1c2ccccc2Sc2cnccc21`: 5.67 µM; `COc1cccc(NC(=O)CSc2nnc(-c3cc(C)n(-c4ccccc4)c3C)o2)c1`: > 35.9 µM (inactive).
As to `CCN(c1cccc(C)c1)c1ncnc2nc[nH]c12`, the IC50 result was “inactive”.
Next, `O=C(CC(Nc1ccc(Cl)cc1Cl)C(=O)O)c1ccccc1` (configuration not stated): > 35.9 µM (inactive); `CC(=O)c1cccc(NC(=O)Nc2ccc3c(c2)N(C)C(=O)CS3)c1`: > 12 µM (inactive).
Next, `Cc1sc2ncnc(N3CCC(C(=O)Nc4ccccc4C(C)(C)C)CC3)c2c1C`: 5.75 µM; `CC(=O)/C(N=Nc1ccc2c(c1)OCCO2)=C(\C)O`: > 35.9 µM (inactive).
On to `O=C(Nc1ccccc1Oc1ccccc1)c1cc([N+](=O)[O-])ccc1Cl`, for which the 50% inhibitory concentration (IC50) was 5.45 µM.
Next, `O=C(CCCc1nc(-c2ccccc2Cl)no1)NC1CCCC1`: 8.14 µM.
In the case of `COc1ccc(-c2cn[nH]c2-c2ccc(OC)cc2O)cc1`, the IC50 is 2.89 µM.
On to `CCOC(=O)C(=CNc1ccc(NC2=NCC(C)S2)cc1)C(=O)OCC` (configuration not stated), for which the IC50 was 3.32 µM.
Next, `COc1ccc(C(C(=O)NC2CCCCC2)N(C(=O)CCl)c2ccc(Cl)cc2)cc1` (configuration not stated): 3.7 µM; `Cc1ccc(-n2c(C)cc(C(=O)COc3cccnc3[N+](=O)[O-])c2C)cc1`: > 35.9 µM (inactive); `CN(C)c1ccc(C(=S)Nc2ccccc2)cc1`: > 35.9 µM (inactive).
For `Cc1nc(N)nc(N)c1-c1ccc(Cl)c(Cl)c1` the value was 1.37 µM.
In the case of `COC(=O)c1cc(S(=O)(=O)NCCc2ccc(Cl)cc2)c[nH]1`, the IC50 is 5.72 µM.
For `CCc1ccc(/C=C2\SC(=S)N(CCCC(=O)NCCCN3CCOCC3)C2=O)cc1` the value was “inactive”; for `Cc1ccc(/C=C2/SC(=S)N(CCCC(=O)Nc3ccc(O)cc3)C2=O)cc1`, 6.45 µM.
For `O=C(COc1ccc(Cl)cc1)Nc1ccc(C(=O)NCc2cccnc2)cc1` the value was “inactive”; for `NC(=S)NN=Cc1nccc2c(N)cccc12`, 2.42 µM; for `COc1cc(C(=O)OCC(=O)Nc2sccc2C(N)=O)cc(OC)c1OC`, > 35.9 µM (inactive).
With `Cc1nc(N2CCC(C(N)=O)CC2)c2c(-c3cccs3)csc2n1`, the concentration for half-maximal inhibition (IC50) was 6.94 µM.
As to `CCCCC(=O)NC(c1ccc(Cl)cc1Cl)c1ccc2cccnc2c1O` (configuration not stated), the IC50 was 4.71 µM.
In the case of `CN1C(=O)C2(C(C#N)=C(N)N(c3cc(Cl)cc(Cl)c3)C3=C2C(=O)CCC3)c2ccccc21` (configuration not stated), the IC50 is 2.63 µM.
Next, `CCn1c2ccccc2c2cnc(N=CN(C)C)c(C#N)c21`: 4.94 µM; `O=S(=O)(/C(=C\c1ccc(C(F)(F)F)cc1)c1nc2ccccc2[nH]1)c1ccccc1`: > 12 µM (inactive); `O=[N+]([O-])c1cccc2c1ccc1ncccc12`: 8.07 µM.
As for `CCOc1ccc(/C=C2\SC(=S)N(CCCC(=O)NCCCN3CCOCC3)C2=O)cc1`, the IC50 entry is “inactive”.
Next, `CC(C)(C)c1cc(C(=O)N/N=C/c2ccc(O)cc2)n(-c2ccccc2)n1`: > 35.9 µM (inactive); `Cc1ncc(CO)c(/C=N/NC(=O)c2cc3c(s2)CCCC3)c1O`: 7.15 µM; `CC1(C)N=C(N)N=C(N)N1CCCCc1ccccc1`: 3.98 µM.
For `Nc1ncnc(NCc2ccccc2)c1[N+](=O)[O-]` the value was 5.6 µM.
On to `COc1cc(/C=C2\CC(C(C)(C)C)C/C(=C\c3cc(OC)c(OC)c(OC)c3)C2=O)cc(OC)c1OC` (configuration not stated), for which the IC50 was > 35.9 µM (inactive).
For `Nc1nc(CCl)nc(Nc2cccc3ccccc23)n1` the value was “inactive”.
